Measurements published in patent publication US20240368150A1 (Hoffmann-La Roche Inc., priority 2021, published 2024).
Where two headings read alike, the source gives them in different places.

Key:
primary human T-cells [1] = system: primary human T-cells
primary human T-cells [2] = test: Proliferation assay after 5 days (CellTiter-Glo, CD3 stimulation; PBS counter screen); type: cell-based; conditions: CD3 stimulation; for Emax: 5 days, normalized to reference compound A1 as stimulator control = 100%, DMSO neutral control, read-out: Emax proliferation (% activation); for EC50: primary human T-cells, CellTiter-Glo after 5 days, EC50 of fitted sigmoidal curve, read-out: Tcell Proliferation CD3 EC50
Method in brief: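 After compound addition to medium-only plates, cells are cultured 5 days, equilibrated to room temperature, mixed with an equal volume of CellTiter-Glo 2.0 and rocked 15 min before luminescence is read. Signal reflects ATP content, taken as proportional to cell number.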

| Structure (SMILES) | EC50 (primary human T-cells [1]) | Emax (primary human T-cells [2]; Homo sapiens, T-cell, 120 h) | EC50 (primary human T-cells [2]; Homo sapiens, T-cell, 120 h) | EC50 (primary human T-cells [2]) |
| --- | --- | --- | --- | --- |
| CC(C)(C)c1nnc(-c2cc3c(cc2F)S(=O)(=O)C[C@H](N)C(=O)N3Cc2ccc(OCCCCCCCCCCCNC(=O)CCC3=CC4=Cc5ccc(-c6ccc[nH]6)n5[B-](F)(F)[N+]4=C3)cc2)o1 [Example 189, 3-[2,2-difluoro-12-(1H-pyrrol-2-yl)-1-aza-3-azonia-2-boranuidatricyclo[7.3.0.03,7]dodeca-3,5,7,9,11-pentaen-5-yl]-N-[11-[4-[[(3R)-3-amino-7-(5-tert-butyl-1,3,4-oxadiazol-2-yl)-8-fluoro-1,1,4-trioxo-2,3-dihydro-1λ^6,5-benzothiazepin-5-yl]methyl]phenoxy]undecyl]propanamide] | > 2730 nM | 134% | 680 nM |  |
| N[C@H]1CS(=O)(=O)c2cc(F)c(-c3nnc(C4(C(F)(F)F)CC4)o3)cc2N(Cc2ccc(Cl)cc2)C1=O [Example 126, (3R)-3-amino-5-[(4-chlorophenyl)methyl]-8-fluoro-1,1-dioxo-7-[5-[1-(trifluoromethyl)cyclopropyl]-1,3,4-oxadiazol-2-yl]-2,3-dihydro-1λ^6,5-benzothiazepin-4-one] | 62.4 nM | 135% | 113 nM |  |
| CC(C)(C)n1nc(-c2cc3c(cc2F)S(=O)(=O)C[C@H](N)C(=O)N3Cc2ccc(Cl)cc2)oc1=O [Example 510, 3-tert-butyl-5-[(3R)-3-amino-5-[(4-chlorophenyl)methyl]-8-fluoro-1,1,4-trioxo-2,3-dihydro-1λ^6,5-benzothiazepin-7-yl]-1,3,4-oxadiazol-2-one] | 91.7 nM | 129% | 403 nM |  |
| N[C@H]1CS(=O)(=O)c2cc(F)c(-c3nnc(C4CC4)o3)cc2N(Cc2ccc(Cl)cc2)C1=O [Example 85, (3R)-3-Amino-5-[(4-chlorophenyl)methyl]-7-(5-cyclopropyl-1,3,4-oxadiazol-2-yl)-8-fluoro-1,1-dioxo-2,3-dihydro-1λ^6,5-benzothiazepin-4-one] | 470 nM | 100% | 237 nM |  |
| CC(C)(C#N)c1nnc(-c2cc3c(cc2F)S(=O)(=O)C[C@H](N)C(=O)N3Cc2ccc(OC(F)(F)F)cc2)o1 [Example 59] | 79.9 nM | 94% | 54.5 nM |  |
| NC(c1nnc(-c2cc3c(cc2F)S(=O)(=O)C[C@H](N)C(=O)N3Cc2ccc(OC(F)(F)F)cc2)o1)C(F)(F)F (stereo partly drawn) [Example 58, (3R)-3-amino-7-[5-(1-amino-2,2,2-trifluoro-ethyl)-1,3,4-oxadiazol-2-yl]-8-fluoro-1,1-dioxo-5-[[4-(trifluoromethoxy)phenyl]methyl]-2,3-dihydro-1λ^6,5-benzothiazepin-4-one] | 220 nM | 126% | 684 nM |  |
| Cc1c(F)c(-c2nnc(C(C)(C)C)o2)cc2c1S(=O)(=O)C[C@H](N)C(=O)N2Cc1ccc(Cl)cc1 [Example 218, (3R)-3-amino-7-(5-tert-butyl-1,3,4-oxadiazol-2-yl)-5-[(4-chlorophenyl)methyl]-8-fluoro-9-methyl-1,1-dioxo-2,3-dihydro-1λ^6,5-benzothiazepin-4-one] | 7860 nM | 80% | 3890 nM |  |
| CC(F)(F)CNC(=O)c1nc(-c2cc3c(cc2F)S(=O)(=O)C[C@H](N)C(=O)N3Cc2ccc(Cl)cc2)no1 [Example 295, 3-[(3R)-3-amino-5-[(4-chlorophenyl)methyl]-8-fluoro-1,1,4-trioxo-2,3-dihydro-1λ^6,5-benzothiazepin-7-yl]-N-(2,2-difluoropropyl)-1,2,4-oxadiazole-5-carboxamide] | 885 nM | 97% | 1390 nM |  |
| CC(C)(C)c1nnc(-c2cc3c(cc2F)S(=O)(=O)C[C@H](N)C(=O)N3Cc2cnn(CC3CC3)c2)o1 [Example 255, (3R)-3-amino-7-(5-tert-butyl-1,3,4-oxadiazol-2-yl)-5-[[1-(cyclopropylmethyl)pyrazol-4-yl]methyl]-8-fluoro-1,1-dioxo-2,3-dihydro-1λ^6,5-benzothiazepin-4-one] | 849 nM | 78% | 4830 nM |  |
| CC1(c2nnc(-c3ccc4c(c3)N(Cc3ccc(Cl)cc3)C(=O)[C@@H](N)CS4(=O)=O)o2)CCN(C(=O)OCC(F)(F)F)CC1 [Example 382, 2,2,2-trifluoroethyl 4-[5-[(3R)-3-amino-5-[(4-chlorophenyl)methyl]-1,1,4-trioxo-2,3-dihydro-1λ^6,5-benzothiazepin-7-yl]-1,3,4-oxadiazol-2-yl]-4-methyl-piperidine-1-carboxylate] | 1680 nM | 100% | 893 nM |  |
| [2H]C([2H])([2H])C(c1nnc(-c2ccc3c(c2)N(Cc2ccc(Cl)cc2)C(=O)[C@@H](N)CS3(=O)=O)o1)(C([2H])([2H])[2H])C([2H])([2H])[2H] [Example 380, (3R)-3-amino-5-[(4-chlorophenyl)methyl]-1,1-dioxo-7-[5-[2,2,2-trideuterio-1,1-bis(trideuteriomethyl)ethyl]-1,3,4-oxadiazol-2-yl]-2,3-dihydro-1λ^6,5-benzothiazepin-4-one] | 819 nM | 132% | 613 nM |  |
| CC(C)(C)c1nnc(-c2cc3c(cc2F)S(=O)(=O)C[C@H](N)C(=O)N3Cc2ccc(OCC(N)=O)cc2)o1 [Example 236, 2-[4-[[(3R)-3-amino-7-(5-tert-butyl-1,3,4-oxadiazol-2-yl)-8-fluoro-1,1,4-trioxo-2,3-dihydro-1λ^6,5-benzothiazepin-5-yl]methyl]phenoxy]acetamide] | 3230 nM | 98% | 3240 nM |  |
| CC(C)(C)n1nnc(-c2cc3c(cc2F)S(=O)(=O)C[C@H](N)C(=O)N3Cc2ccc(F)cc2)n1 [Example 32] | 7630 nM | 101% | 808 nM |  |
| COC(=O)N1CC2CC(c3nc(-c4cc5c(cc4F)S(=O)(=O)C[C@H](N)C(=O)N5Cc4ccc(Cl)cc4)no3)(C2)C1 [Example 317, methyl 1-[3-[(3R)-3-amino-5-[(4-chlorophenyl)methyl]-8-fluoro-1,1,4-trioxo-2,3-dihydro-1λ^6,5-benzothiazepin-7-yl]-1,2,4-oxadiazol-5-yl]-3-azabicyclo[3.1.1]heptane-3-carboxylate] | 2230 nM | 142% |  |  |
| CS(=O)(=O)N1CCC2CC2(c2nnc(-c3cc4c(cc3F)S(=O)(=O)C[C@H](N)C(=O)N4Cc3ccc(Cl)cc3)o2)C1 (stereo partly drawn) [Example 179, (3R)-3-amino-5-[(4-chlorophenyl)methyl]-8-fluoro-7-[5-(3-methylsulfonyl-3-azabicyclo[4.1.0]heptan-1-yl)-1,3,4-oxadiazol-2-yl]-1,1-dioxo-2,3-dihydro-1λ^6,5-benzothiazepin-4-one] | 335 nM | 80% | 1580 nM |  |
| CCc1coc(CN2C(=O)[C@@H](N)CS(=O)(=O)c3cc(F)c(-c4nnc(C(C)(C)C)o4)cc32)n1 [Example 241, (3R)-3-amino-7-(5-tert-butyl-1,3,4-oxadiazol-2-yl)-5-[(4-ethyloxazol-2-yl)methyl]-8-fluoro-1,1-dioxo-2,3-dihydro-1λ^6,5-benzothiazepin-4-one] | > 10000 nM | 73% | 2940 nM |  |
| CN(C)CC(C)(C)c1nnc(-c2cc3c(cc2F)S(=O)(=O)C[C@H](N)C(=O)N3Cc2ccc(Cl)cc2)o1 [Example 146, (3R)-3-amino-5-[(4-chlorophenyl)methyl]-7-[5-[2-(dimethylamino)-1,1-dimethyl-ethyl]-1,3,4-oxadiazol-2-yl]-8-fluoro-1,1-dioxo-2,3-dihydro-1λ^6,5-benzothiazepin-4-one] | 260 nM | 90% | 189 nM |  |
| CN(C)Cc1nc(-c2cc3c(cc2F)S(=O)(=O)C[C@H](N)C(=O)N3Cc2ccc(Cl)cc2)no1 [Example 325, (3R)-3-amino-5-[(4-chlorophenyl)methyl]-7-[5-[(dimethylamino)methyl]-1,2,4-oxadiazol-3-yl]-8-fluoro-1,1-dioxo-2,3-dihydro-1λ^6,5-benzothiazepin-4-one] | 455 nM | 96% | 869 nM |  |
| COC(=O)N1CCC(c2nnc(-c3ccc4c(c3)N(Cc3ccc(OC(F)(F)F)cc3)C(=O)[C@@H](N)CS4(=O)=O)o2)C1 (stereo partly drawn) [Example 423, methyl 3-[5-[(3R)-3-amino-1,1,4-trioxo-5-[[4-(trifluoromethoxy)phenyl]methyl]-2,3-dihydro-1λ^6,5-benzothiazepin-7-yl]-1,3,4-oxadiazol-2-yl]pyrrolidine-1-carboxylate] | 1500 nM | 78% | 1720 nM |  |
| N[C@H]1C[S+]([O-])c2cc(F)c(-c3noc(N4CCOC5(CC5)C4)n3)cc2N(Cc2ccc(Cl)cc2)C1=O (single isomer, unassigned; epimer b) [Example 210] | 7170 nM |  |  | 1550 nM |
| N[C@H]1CS(=O)(=O)c2cc(F)c(-c3nnc(C(=O)N4[C@@H]5CCC[C@H]4CC5)o3)cc2N(Cc2ccc(Cl)cc2)C1=O [Example 96, (3R)-3-amino-5-[(4-chlorophenyl)methyl]-8-fluoro-1,1-dioxo-7-[5-[(1R,5S)-8-azabicyclo[3.2.1]octane-8-carbonyl]-1,3,4-oxadiazol-2-yl]-2,3-dihydro-1λ^6,5-benzothiazepin-4-one] | 604 nM | 46% | > 2730 nM |  |
| CC(=O)N1CC(n2nnc(-c3cc4c(cc3F)S(=O)(=O)C[C@H](N)C(=O)N4Cc3ccc(Cl)cc3)n2)CC(F)(F)C1 (stereo partly drawn) [Example 24, (3R)-7-[2-(1-acetyl-5,5-difluoro-3-piperidyl)tetrazol-5-yl]-3-amino-5-[(4-chlorophenyl)methyl]-8-fluoro-1,1-dioxo-2,3-dihydro-1λ^6,5-benzothiazepin-4-one] | 6620 nM | 95% | 2020 nM |  |
